The structures appear in SMILES notation.

T1 sequence (Q15858 1-1977 isoform Q15858-3): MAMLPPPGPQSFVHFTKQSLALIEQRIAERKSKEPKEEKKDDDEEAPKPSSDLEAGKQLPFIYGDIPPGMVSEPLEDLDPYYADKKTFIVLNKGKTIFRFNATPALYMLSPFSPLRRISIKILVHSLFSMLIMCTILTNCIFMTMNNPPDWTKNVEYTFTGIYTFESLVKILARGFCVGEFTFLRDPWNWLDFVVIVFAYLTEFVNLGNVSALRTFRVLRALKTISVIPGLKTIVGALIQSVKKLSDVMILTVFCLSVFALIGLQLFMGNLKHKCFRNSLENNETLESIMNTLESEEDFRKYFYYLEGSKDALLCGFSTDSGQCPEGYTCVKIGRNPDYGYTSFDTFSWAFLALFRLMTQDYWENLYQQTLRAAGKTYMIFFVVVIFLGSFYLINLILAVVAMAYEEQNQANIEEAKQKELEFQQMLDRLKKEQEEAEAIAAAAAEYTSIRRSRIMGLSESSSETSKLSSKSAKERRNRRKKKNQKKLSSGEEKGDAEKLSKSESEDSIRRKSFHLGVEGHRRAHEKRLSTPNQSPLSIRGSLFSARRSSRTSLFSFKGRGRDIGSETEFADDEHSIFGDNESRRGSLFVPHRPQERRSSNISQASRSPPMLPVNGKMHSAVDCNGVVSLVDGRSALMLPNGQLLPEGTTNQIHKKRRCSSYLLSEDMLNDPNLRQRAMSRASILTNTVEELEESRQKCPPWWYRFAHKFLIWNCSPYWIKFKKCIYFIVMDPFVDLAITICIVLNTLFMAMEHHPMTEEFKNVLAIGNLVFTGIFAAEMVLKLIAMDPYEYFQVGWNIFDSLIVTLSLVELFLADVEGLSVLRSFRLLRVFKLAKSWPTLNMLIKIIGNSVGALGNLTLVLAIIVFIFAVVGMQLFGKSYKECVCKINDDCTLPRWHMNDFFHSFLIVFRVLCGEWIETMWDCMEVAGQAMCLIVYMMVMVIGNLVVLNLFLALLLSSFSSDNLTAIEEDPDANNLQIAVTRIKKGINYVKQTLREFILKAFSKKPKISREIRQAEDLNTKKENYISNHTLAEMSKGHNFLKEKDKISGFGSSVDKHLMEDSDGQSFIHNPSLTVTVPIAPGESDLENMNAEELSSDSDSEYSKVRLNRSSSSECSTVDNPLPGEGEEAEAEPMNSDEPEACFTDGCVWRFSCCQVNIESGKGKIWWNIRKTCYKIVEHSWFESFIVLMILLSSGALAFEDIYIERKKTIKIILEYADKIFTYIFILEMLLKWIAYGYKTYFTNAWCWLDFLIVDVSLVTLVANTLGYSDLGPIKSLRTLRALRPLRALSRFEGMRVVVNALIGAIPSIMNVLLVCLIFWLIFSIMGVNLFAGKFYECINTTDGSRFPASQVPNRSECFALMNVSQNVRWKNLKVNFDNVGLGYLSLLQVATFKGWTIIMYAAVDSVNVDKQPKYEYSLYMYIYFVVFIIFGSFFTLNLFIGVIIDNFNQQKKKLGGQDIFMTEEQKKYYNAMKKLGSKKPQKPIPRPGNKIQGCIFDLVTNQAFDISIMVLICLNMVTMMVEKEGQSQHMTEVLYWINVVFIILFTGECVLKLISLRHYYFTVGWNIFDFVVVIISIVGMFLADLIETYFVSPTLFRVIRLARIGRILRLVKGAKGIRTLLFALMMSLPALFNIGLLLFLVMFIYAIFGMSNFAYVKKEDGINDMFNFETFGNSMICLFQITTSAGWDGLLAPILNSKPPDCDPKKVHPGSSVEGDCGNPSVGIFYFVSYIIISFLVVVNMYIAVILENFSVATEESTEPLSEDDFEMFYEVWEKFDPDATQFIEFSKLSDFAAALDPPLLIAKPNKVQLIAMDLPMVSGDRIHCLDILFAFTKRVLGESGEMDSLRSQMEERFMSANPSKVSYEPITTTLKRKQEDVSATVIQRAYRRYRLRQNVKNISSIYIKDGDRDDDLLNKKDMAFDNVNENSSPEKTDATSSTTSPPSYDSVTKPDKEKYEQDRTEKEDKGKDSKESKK

This experiment concerns the target T1, hNaV1.7 (Homo sapiens, UniProt Q15858).
T1 construct: expressed in transfected cells
Description: Patch voltage clamp electrophysiology (EP), Syncropatch 384PE, Nav1.7 in CHO cells.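 Also: Nav1.7 stably expressed from cDNA in CHO cells, holding potential of −50 mV kept for the entire experiment.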 Particulars: holding potential −50 mV, inhibition based on 7.5 min compound incubation, read-out: hNaV1.7 EP_SP. It counts as cell-based. In general terms: Patch clamp records ionic current or voltage across a cell membrane.
For the compound `N[C@]12C[C@H]1CN(S(=O)(=O)NC(=O)c1cc(Cl)c(OCC3CCCC3)cc1F)C2` (single isomer, unassigned) [Example 217, 2,2,2-trifluoroacetate], the IC50 was 0.37 µM.

Take `CN1CCC(S(=O)(=O)NC(=O)c2cc(Cl)c(OCC3CCCC3)cc2F)C1` (centres unmarked) [Example 323, 5-chloro-4-(cyclopentylmethoxy)-2-fluoro-N-((1-methylpyrrolidin-3-yl)sulfonyl)benzamide]: the IC50 is 0.47 µM.

As to `O=C(NS(=O)(=O)c1ccc2ccccc2c1F)c1cc(Cl)c(OCC2CCCC2)cc1F` [Example 278, 5-chloro-4-(cyclopentylmethoxy)-2-fluoro-N-((1-fluoronaphthalen-2-yl)sulfonyl)benzamide], the IC50 turned out to be 0.96 µM.

On to `C[C@@H]1CCCN1S(=O)(=O)NC(=O)c1cc(Cl)c(OCC2CCCC2)cc1F` (single isomer, unassigned) [Example 222], for which the IC50 stood at 0.033 µM.

Regarding `CN1CC(OC2CCN(S(=O)(=O)NC(=O)c3cc(C4CC4)c(OCC4CC4)cc3F)CC2)C1` [Example 9, 5-cyclopropyl-4-(cyclopropylmethoxy)-2-fluoro-N-((4-((1-methylazetidin-3-yl)oxy)piperidin-1-yl)sulfonyl)benzamide], the IC50 was determined as 0.059 µM.

Take `O=C(NS(=O)(=O)c1ccc(OC2CC2)cc1)c1cc(Cl)c(OCC2CCCC2)cc1F` [Example 276, 5-chloro-4-(cyclopentylmethoxy)-N-((4-cyclopropoxyphenyl)sulfonyl)-2-fluorobenzamide]: the IC50 was 0.13 µM.

Consider `Cc1cc(C(=O)NS(=O)(=O)N2CCC(OC3CN(C)C3)CC2)c(F)cc1OCC1CCCC1` [Example 2, 4-(cyclopentylmethoxy)-2-fluoro-5-methyl-N-((4-((1-methylazetidin-3-yl)oxy)piperidin-1-yl)sulfonyl)benzamide], for which the IC50 was 0.064 µM.

On to `O=C(NS(=O)(=O)N1CCC(OC2CN(C3COC3)C2)CC1)c1cc(Cl)c(OCC2CCCC2)cc1F` [Example 11, 5-chloro-4-(cyclopentylmethoxy)-2-fluoro-N-((4-((1-(oxetan-3-yl)azetidin-3-yl)oxy)piperidin-1-yl)sulfonyl)benzamide], for which the IC50 worked out at 0.13 µM.

In the case of `O=C(NS(=O)(=O)c1ccc(NCc2ccccc2)cc1)c1cc(Cl)c(OCC2CCCC2)cc1F` [Example 84, N-((4-(benzylamino)phenyl)sulfonyl)-5-chloro-4-(cyclopentylmethoxy)-2-fluorobenzamide], the IC50 was 0.69 µM.

For `O=C(NS(=O)(=O)N1CCCc2ccccc21)c1cc(Cl)c(OCC2CCCC2)cc1F` [Example 14, 5-chloro-4-(cyclopentylmethoxy)-N-((3,4-dihydroquinolin-1(2H)-yl)sulfonyl)-2-fluorobenzamide], the IC50 was 0.078 µM.

As to `O=C(NS(=O)(=O)c1ccc(OCC2CCNC2)cc1)c1cc(Cl)c(OCC2CCCC2)cc1F` (stereo in doubt) [Example 302, (R)-5-chloro-4-(cyclopentylmethoxy)-2-fluoro-N-((4-(pyrrolidin-3-ylmethoxy)phenyl)sulfonyl)benzamide], the IC50 was determined as 0.12 µM.

With `C[C@H]1CCCCN1S(=O)(=O)NC(=O)c1cc(Cl)c(OCC2CCCC2)cc1F` (single isomer, unassigned) [Example 224], the IC50 was 0.04 µM.

`O=C(NS(=O)(=O)c1ccccc1F)c1cc(Cl)c(OCC2CCCC2)cc1F` [Example 241, 5-chloro-4-(cyclopentylmethoxy)-2-fluoro-N-((2-fluorophenyl)sulfonyl)benzamide]: the IC50 was found to be 0.065 µM.

As for `CN(C)C1(C)CCCN(c2cc(F)c(S(=O)(=O)NC(=O)c3cc(Cl)c(OCC4CCCC4)cc3F)c(F)c2)C1` (centres unmarked) [Example 76, 5-chloro-4-(cyclopentylmethoxy)-N-((4-(3-(dimethylamino)-3-methylpiperidin-1-yl)-2,6-difluorophenyl)sulfonyl)-2-fluorobenzamide], the IC50 came out at 0.032 µM.

On to `N[C@@]12C[C@@H]1CN(S(=O)(=O)NC(=O)c1cc(Cl)c(OCC3CCCC3)cc1F)C2` (single isomer, unassigned) [Example 218, 2,2,2-trifluoroacetate], for which the IC50 was found to be 0.56 µM.

For `O=C(NS(=O)(=O)CCCOc1cccc(C(F)(F)F)c1)c1cc(Cl)c(OCC2CCCC2)cc1F` [Example 253, 5-chloro-4-(cyclopentylmethoxy)-2-fluoro-N-((3-(3-(trifluoromethyl)phenoxy)propyl)sulfonyl)benzamide], the IC50 was found to be 0.42 µM.

Take `CC(=O)N1CCc2cccc(COc3ccc(S(=O)(=O)NC(=O)c4cc(Cl)c(OCC5CCCC5)cc4F)cc3)c2C1` [Example 297, N-((4-((2-acetyl-1,2,3,4-tetrahydroisoquinolin-8-yl)methoxy)phenyl)sulfonyl)-5-chloro-4-(cyclopentylmethoxy)-2-fluorobenzamide]: the IC50 turned out to be 0.022 µM.

Regarding `O=C(NS(=O)(=O)N1CC[C@@H]2CCC[C@H]21)c1cc(Cl)c(OCC2CCCC2)cc1F` (single isomer, unassigned) [Example 220], the IC50 was determined as 0.014 µM.

Regarding `CN1CC(OC2CCN(S(=O)(=O)NC(=O)c3cc(C4CC4)c(OCc4ccccc4)cc3F)CC2)C1` [Example 236, 4-(benzyloxy)-5-cyclopropyl-2-fluoro-N-((4-((1-methylazetidin-3-yl)oxy)piperidin-1-yl)sulfonyl)benzamide], the IC50 worked out at 0.039 µM.

As for `CN1CC(OC2CCN(S(=O)(=O)NC(=O)c3cc(C4CC4)c(OCC(F)(F)F)cc3F)CC2)C1` [Example 238, 5-cyclopropyl-2-fluoro-N-((4-((1-methylazetidin-3-yl)oxy)piperidin-1-yl)sulfonyl)-4-(2,2,2-trifluoroethoxy)benzamide], the IC50 worked out at 0.084 µM.

Regarding `O=C(NS(=O)(=O)CC1Cc2ccccc2C1)c1cc(Cl)c(OCC2CCCC2)cc1F` [Example 266, 5-chloro-4-(cyclopentylmethoxy)-N-(((2,3-dihydro-1H-inden-2-yl)methyl)sulfonyl)-2-fluorobenzamide], the IC50 came out at 0.13 µM.

On to `O=C(NS(=O)(=O)N1CC(OC2CCNCC2)C1)c1cc(Cl)c(OCC2CCCC2)cc1F` [Example 50, 5-chloro-4-(cyclopentylmethoxy)-2-fluoro-N-((3-(piperidin-4-yloxy)azetidin-1-yl)sulfonyl)benzamide], for which the IC50 was 0.26 µM.

Regarding `COc1ccccc1COc1ccc(S(=O)(=O)NC(=O)c2cc(Cl)c(OCC3CCCC3)cc2F)cc1` [Example 318, 5-chloro-4-(cyclopentylmethoxy)-2-fluoro-N-((4-((2-methoxybenzyl)oxy)phenyl)sulfonyl)benzamide], the IC50 was found to be 0.19 µM.

As for `CN1CC(OC2CCN(S(=O)(=O)NC(=O)c3cc(Cl)c(OCC4CCCC4)cc3F)CC2)C1` [Example 1, 5-chloro-4-(cyclopentylmethoxy)-2-fluoro-N-((4-((1-methylazetidin-3-yl)oxy)piperidin-1-yl)sulfonyl)benzamide], the IC50 was 0.11 µM.

`CC(C)N1CC(OC2CCN(S(=O)(=O)NC(=O)c3cc(Cl)c(OCC4CCCC4)cc3F)CC2)C1` [Example 10, 5-chloro-4-(cyclopentylmethoxy)-2-fluoro-N-((4-((1-isopropylazetidin-3-yl)oxy)piperidin-1-yl)sulfonyl)benzamide]: the IC50 is 0.031 µM.

Regarding `O=C(NS(=O)(=O)c1ccc(OCc2cc(F)cc(F)c2)cc1)c1cc(Cl)c(OCC2CCCC2)cc1F` [Example 307, 5-chloro-4-(cyclopentylmethoxy)-N-((4-((3,5-difluorobenzyl)oxy)phenyl)sulfonyl)-2-fluorobenzamide], the IC50 came out at 0.73 µM.

The record behind these values is patent US20240228463A1, “SODIUM CHANNEL INHIBITORS AND METHODS OF DESIGNING SAME” (Genentech, Inc., priority 2021, published 2024).
